Like-named read-outs stand apart in the source and are kept apart here.
Legend:
Assay type in all cases: in vivo, human
[1] = Population PK: parent MT steady state plasma Cmax,ss in Phase III patients; conditions: for % high Cmax (Cmax,ss > 0.373 ng/ml): LMTM 8 mg/day; for Cmax: human, plasma, oral, parent MT
Text: (§1) Pharmacokinetic analyses were undertaken using plasma concentration data from patients who participated in either of two completed Phase III trials which have been described previously [[35, 36]]. In brief, the first (TRx-237-015) was a 15-month study which recruited 890 patients from 115 sites across 16 countries in EU, North America, Asia, and Russia. Patients had to be <90 years of age and have a diagnosis of mild to moderate probable AD according to National Institute of Aging (NIA) and Alzheimer’s Association (AA) criteria and a Mini-Mental State Examination (MMSE) score of 14–26 inclusive and with a Clinical Dementia Rating (CDR) total score of 1 or 2. The second study (TRx-237-005) was an 18-month trial which recruited 800 patients from 108 sites in Canada, United States, Australia, and Europe. Patients had to meet the same age and diagnosis criteria, except that they were required to have a MMSE score of 20–26 inclusive and a CDR total score of 0.5 or 1.0. Concomitant use of AChEIs or memantine (or both) was permitted in both studies provided this was at a stable dose for at least 18 weeks before randomization. Concomitant use of serotonergic antidepressant, antipsychotic (except clozapine or olanzapine), and sedative medications was also permitted at stable doses where clinically feasible. Patients were randomly assigned to receive LMTM at doses of 250, 150, or 8 mg/day in Study 015 and doses of 200 or 8 mg/day in Study TRx-237-005. Randomization in both studies was stratified according to geographical region, use of AD-labelled co-medications, and severity of AD. The co-primary outcomes in both studies were the Alzheimer’s Disease Assessment Scale–cognitive subscale, 11-item version (ADAS-cog11) and the Alzheimer’s Disease Co-operative Study–Activities of Daily Living, 23-item version (ADCS-ADL23) scale measured at baseline and every 3 months. MRI scans were undertaken at screening or baseline and at 3-month intervals. MRI acquisition protocol and parameters were standardized across sites and all data were centrally collected, quality-controlled, and analyzed blind by an imaging core lab (Bioclinica). Volumetric data were used to measure changes in whole brain volume (WBV, which provides a measure of the volume of grey and white matter), lateral ventricular volume (LVV), and other regional volumes including hippocampus, although only the global measures are reported in the present study. Baseline volumes were assessed using FreeSurfer 5.3, and volume change was assessed using Boundary Shift Integral and Tensor Based Morphometry for regional structures. Full details and study protocols for these two trials are available [[35, 36]].
Blood samples for assessment of parent MT, N-desmethyl MT, and total MT (sum of parent MT and a labile LMT conjugate) were collected from each patient on the first treatment visit (two samples: pre-dose and approximately 3.5 h after the dose) and at each subsequent on-treatment visit. The protocol specified that PK plasma sampling was to be conducted only at sites with adequate facilities (i.e., a refrigerated centrifuge and adequate capability to reliably freeze samples). Blinded analyses were conducted at the University of Aberdeen GLP Test Facility. MT levels in plasma were measured using liquid chromatography-tandem mass spectrometry. […] The method was validated for use in the Phase III studies over the range 0.2 to 10 ng/ml. Extrapolated MT concentrations were available below the lower limit of quantitation (but above the lower limit of detection) in approximately 35% of the Day 1 patients randomized to the 8 mg/day dose. The method was validated for long-term sample storage of 162 days at –20°C. […] Plasma samples from a total of 1,296 patients from the two Phase III studies in AD were available for analysis and, of these, 1,162 also had baseline and post-baseline efficacy outcome data available for analysis. […]

[2] = system: patients with mild to moderate Alzheimer's disease; experiment: ADCS-ADL23 change over 65 weeks by plasma exposure; conditions: for ADCS-ADL Difference ± SEM: split by 8 mg/day Cmax,ss median
Text: as §1
Having shown a concentration-dependent response for cognitive decline, a mixed-effects model for repeated measures analysis was used to characterize further the relationship between each efficacy endpoint and parent MT plasma exposure (steady state Cmax,ss) according to the following formula: pharmacological activity∼plasma-level×visit+co-medication-status×visit+co-medication-status×plasma-level+geographical-region+CDR-at-baseline+baseline-score×visit
The following terms were categorical variables in the models: plasma exposure (Cmax,ss) (7 levels), visit (5 levels), co-medication status with AD drugs (2 levels), geographical region (2 levels), and CDR at baseline (3 levels). For the longitudinal analyses, plasma level was described by two levels (above or below threshold).

[3] = system: patients with mild to moderate Alzheimer's disease; experiment: Hill equation concentration-response analysis (ADAS-cog11 and WBV)
Text: In addition to the exposure-response analyses described above, a further standard pharmacological concentration-response analysis was undertaken using the Hill equation [40] applied to the ADAS-cog11 and whole brain volume data to characterize the overall response profile quantitatively and to investigate the lower concentration limit of the treatment effect. The Hill equation was applied under the assumption of non-cooperativity and was applied with an additional linear term to permit trends occurring at high concentrations to be included in the model. […] This was fitted separately for LMTM added to approved symptomatic treatments and for those who took the drug as monotherapy, with parameters estimated using a non-linear least squares estimator.
In order to relate Cmax,ss values to theoretical doses, a linear model was fitted to the mean plasma concentrations at the 8, 150, 200 and 250 mg/day doses: estimated dose=22.22×(Cmax, ss-0.016) where dose is in mg/day and Cmax,ss is ng/ml units.

In the case of `CN(C)c1ccc2c(c1)Sc1cc(N(C)C)ccc1N2` [LMTM, leuco-methylthioninium bis(hydromethanesulphonate)], the “patients with subthreshold plasma levels (below 0.2 ng/ml) after first dose on Day 1” value ([1]; 8 mg/day) is reported as 35%, the “steady state plasma levels” value ([1]; 8 mg/day dose) is reported as 0.3 to 0.8 ng/mL and the “probability of achieving the Cmax,ss threshold of 0.373 ng/ml” value ([1]; 8 mg/day, creatinine clearance 20 ml/min/1.73 m^2) is reported as about 100%. For the same compound, the “probability of achieving the Cmax,ss threshold of 0.373 ng/ml” value ([1]; 8 mg/day, creatinine clearance 106 ml/min/1.73 m^2) was “essentially zero”, the “% high Cmax (Cmax,ss > 0.373 ng/ml)” value ([1]; patients not using anti-inflammatory and antirheumatic products, non-steroids) was 67.3% and the “% high Cmax (Cmax,ss > 0.373 ng/ml)” value ([1]; patients not using antihypertensive/antiarrhythmic drugs) was 60.6%. For the same compound, the “% high Cmax (Cmax,ss > 0.373 ng/ml)” value ([1]; patients not using antithrombotic agents) was 62.6%, the “% high Cmax (Cmax,ss > 0.373 ng/ml)” value ([1]; patients not using blood glucose lowering drugs, excluding insulins) was 65.6% and the “% high Cmax (Cmax,ss > 0.373 ng/ml)” value ([1]; patients not using drugs for peptic ulcer and gastro-esophageal reflux disease) was 65.3%. For the same compound, the “% high Cmax (Cmax,ss > 0.373 ng/ml)” value ([1]; patients not using lipid modifying agents) was 66.0%, the “% high Cmax (Cmax,ss > 0.373 ng/ml)” value ([1]; patients not using thyroid preparations) was 64.3% and the “% high Cmax (Cmax,ss > 0.373 ng/ml)” value ([1]; patients using anti-inflammatory and antirheumatic products, non-steroids) was 59.5%. The “% high Cmax (Cmax,ss > 0.373 ng/ml)” value ([1]; patients using antithrombotic agents) was 70.3%, the “% high Cmax (Cmax,ss > 0.373 ng/ml)” value ([1]; patients using blood glucose lowering drugs, excluding insulins) was 66.2% and the “% high Cmax (Cmax,ss > 0.373 ng/ml)” value ([1]; patients using drugs for peptic ulcer and gastro-esophageal reflux disease) was 66.9%. For the same compound, the “% high Cmax (Cmax,ss > 0.373 ng/ml)” value ([1]; patients using lipid modifying agents) was 65.2%, the “% high Cmax (Cmax,ss > 0.373 ng/ml)” value ([1]; patients using thyroid preparations) was 74.1% and the “estimated mean plasma concentration” value ([1]; expected at 16 mg/day) was 0.88 ± 0.18 ng/mL. The plasma concentrations ([1]; high doses (150–250 mg/day)) was 4 to 21 ng/mL, the Cmax ([1]; 8 mg/day, 8 mg/day – Group 1, read-out: Cmax,ss Mean (SD)) was 0.334 ng/mL and the Cmax ([1]; 8 mg/day, 8 mg/day – Group 1, read-out: Cmax,ss Range) was 0.257 to 0.373 ng/mL. The Cmax ([1]; 8 mg/day, 8 mg/day – Group 2, read-out: Cmax,ss Range) was 0.373 to 0.414 ng/mL, the Cmax ([1]; 8 mg/day, 8 mg/day – Group 3, read-out: Cmax,ss Mean (SD)) was 0.449 ng/mL and the Cmax ([1]; 8 mg/day, 8 mg/day – Group 3, read-out: Cmax,ss Range) was 0.415 to 0.478 ng/mL. For the same compound, the Cmax ([1]; 8 mg/day, 8 mg/day – Group 4, read-out: Cmax,ss Mean (SD)) was 0.565 ng/mL, the Cmax ([1]; 8 mg/day, 8 mg/day – Group 4, read-out: Cmax,ss Range) was 0.479 to 0.812 ng/mL and the Cmax ([1]; 150 mg/day, 150 mg/day, read-out: Cmax,ss Mean (SD)) was 7.82 ng/mL. The Cmax ([1]; 150 mg/day, 150 mg/day, read-out: Cmax,ss Range) was 5.1 to 18.6 ng/mL, the Cmax ([1]; 200 mg/day, 200 mg/day, read-out: Cmax,ss Mean (SD)) was 10.1 ng/mL and the Cmax ([1]; 200 mg/day, 200 mg/day, read-out: Cmax,ss Range) was 6.56 to 21.3 ng/mL. For the same compound, the Cmax ([1]; 250 mg/day, 250 mg/day, read-out: Cmax,ss Mean (SD)) was 12.6 ng/mL, the Cmax ([1]; 250 mg/day, 250 mg/day, read-out: Cmax,ss Range) was 8.83 to 21.2 ng/mL and the Cmax ([1]; 8 mg/day – Group 2, read-out: Cmax,ss Mean (SD)) was 0.393 ng/mL. For the same compound, the “ADCS-ADL23 Difference±SEM in change from baseline” value ([2]; LMTM 8 mg/day as add-on therapy, Cmax,ss above vs below 0.373 ng/ml) was 1.32±1.04, the “ADCS-ADL23 Difference±SEM in change from baseline” value ([2]; LMTM 8 mg/day as monotherapy, Cmax,ss above vs below 0.373 ng/ml) was 0.46±1.47 and the “ADCS-ADL Difference ± SEM” value ([2]; LMTM 8 mg/day as monotherapy) was 0.52 ± 1.38. For the same compound, the “ADCS-ADL23 Difference±SEM in change from baseline” value ([2]; LMTM 8 mg/day, low Cmax add-on versus high Cmax monotherapy) was 6.14±1.64, the “ADCS-ADL23 Difference±SEM in change from baseline” value ([2]; all patients, high vs low exposure split by Cmax,ss 0.373 ng/ml, 65 weeks) was 0.54±0.94 and the “ADCS-ADL Difference ± SEM” value ([2]; all patients) was 0.21 ± 0.81. The “ADCS-ADL23 Difference±SEM in change from baseline” value ([2]; patients receiving LMTM 8 mg/day, split by Cmax,ss 0.373 ng/ml, 65 weeks) was 1.22±1.01, the “maximum predicted pharmacological activity as add-on therapy relative to monotherapy” value ([3]; Hill equation analysis) was “about half” and the “plasma concentrations at which treatment effects reach a plateau” value ([3]; Hill equation estimates) was 0.9 to 4.1 ng/mL. For the same compound, the “theoretical doses corresponding to the plateau” value ([3]; Hill equation estimates) was 16 to 80 mg/day and the “lower limit of drug activity (plasma Cmax,ss)” value ([3]; monotherapy and add-on therapy, cognitive decline and whole brain atrophy) was “approximately 0.29 ng/ml”.

Reference: PMC6918900, “Concentration-Dependent Activity of Hydromethylthionine on Cognitive Decline and Brain Atrophy in Mild to Moderate Alzheimer’s Disease” (Journal of Alzheimer's Disease, 2019)
